Test results as given in PubChem BioAssay (NCI).
Where “and” joins values, the source holds several entries; their conditions need not be identical. Equal values may be shown once.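 In this assay, cells in 96-well plates receive the compound at five concentrations for 48 hours. Endpoints are linearly interpolated between the surrounding concentrations. GI50 is the concentration that inhibits growth by half. TGI: concentration producing complete growth inhibition.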

Tests used:
Experiment in all cases: DTP human tumour cell line panel, 48 h; in the data active = GI50 below about 0.43 µM; inactive = the rest
MALME-3M melanoma = tested on: MALME-3M melanoma
SK-MEL-28 melanoma = tested on: SK-MEL-28 melanoma
NCI-H460 lung = tested on: NCI-H460 lung
HCC-2998 colon = tested on: HCC-2998 colon
MCF7 breast = tested on: MCF7 breast
COLO 205 colon = tested on: COLO 205 colon
U251 CNS = tested on: U251 CNS
ACHN renal = tested on: ACHN renal
OVCAR-3 ovarian = tested on: OVCAR-3 ovarian
EKVX NSCLC = tested on: EKVX NSCLC

Cc1[nH]c(/C=C2\C(=O)Nc3ccc(F)cc32)c(C)c1C(=O)NC[C@H](O)CN1CCOCC1
inactive: GI50 (MALME-3M melanoma) 4.21 µM | GI50 (SK-MEL-28 melanoma) 4.16 µM | GI50 (NCI-H460 lung) 2390 nM | GI50 (HCC-2998 colon) 5.17 µM | GI50 (MCF7 breast) 3.11 µM | GI50 (COLO 205 colon) 3.41 µM | GI50 (U251 CNS) 6.65 µM | GI50 (ACHN renal) 3.49 µM | GI50 (OVCAR-3 ovarian) > 10 µM | GI50 (EKVX NSCLC) 8.02 µM
> 10 µM: TGI (MALME-3M melanoma) | TGI (SK-MEL-28 melanoma) | TGI (NCI-H460 lung) | TGI (HCC-2998 colon) | TGI (MCF7 breast) | TGI (COLO 205 colon) | TGI (U251 CNS) | TGI (ACHN renal) | TGI (OVCAR-3 ovarian) | TGI (EKVX NSCLC)

O=C(Nc1ncc(Cc2ccccc2Cl)s1)c1ccc2c(c1)OCCO2
inactive: GI50 (MALME-3M melanoma) 0.68 µM | GI50 (SK-MEL-28 melanoma) 1.66 µM | GI50 (HCC-2998 colon) 0.468 µM | GI50 (ACHN renal) 0.776 µM | GI50 (EKVX NSCLC) 0.663 µM
> 100 µM: TGI (MCF7 breast) | TGI (EKVX NSCLC)
1.07 µM: TGI (OVCAR-3 ovarian)
> 47.1 µM: TGI (MALME-3M melanoma)
> 51.6 µM: TGI (U251 CNS)
3.55 µM: TGI (COLO 205 colon)
> 59 µM: TGI (SK-MEL-28 melanoma)
> 65.1 µM: TGI (ACHN renal)
> 44.1 µM: TGI (NCI-H460 lung)
active: GI50 (NCI-H460 lung) 352 nM | GI50 (MCF7 breast) 0.32 µM | GI50 (COLO 205 colon) 0.318 µM | GI50 (U251 CNS) 0.4 µM | GI50 (OVCAR-3 ovarian) 0.285 µM
> 55.5 µM: TGI (HCC-2998 colon)

N=C(N)CCCCCCCCC(=N)N
20.9 µM: TGI (COLO 205 colon)
inactive: GI50 (MALME-3M melanoma) 39.9 µM | GI50 (SK-MEL-28 melanoma) 58.1 µM | GI50 (NCI-H460 lung) 18800 nM | GI50 (HCC-2998 colon) 28.5 µM | GI50 (MCF7 breast) 25.7 µM | GI50 (COLO 205 colon) 7.86 µM | GI50 (U251 CNS) 8.08 µM | GI50 (ACHN renal) > 100 µM | GI50 (OVCAR-3 ovarian) 34.1 µM | GI50 (EKVX NSCLC) 9.51 µM
> 100 µM: TGI (MALME-3M melanoma) | TGI (SK-MEL-28 melanoma) | TGI (NCI-H460 lung) | TGI (HCC-2998 colon) | TGI (MCF7 breast) | TGI (U251 CNS) | TGI (ACHN renal) | TGI (OVCAR-3 ovarian) | TGI (EKVX NSCLC)

COc1ccc(-c2cn[nH]c2-c2cc(OC)c(OC)c(OC)c2)cc1N
13.3 µM and > 38.5 µM: TGI (NCI-H460 lung)
93.6 µM and 32.1 µM: TGI (HCC-2998 colon)
> 100 µM: TGI (MALME-3M melanoma) | TGI (SK-MEL-28 melanoma) | TGI (MCF7 breast) | TGI (U251 CNS) | TGI (ACHN renal) | TGI (EKVX NSCLC)
active: GI50 (NCI-H460 lung) < 10 nM and 34.3 nM | GI50 (HCC-2998 colon) < 0.01 µM and 0.0317 µM | GI50 (MCF7 breast) < 0.01 µM and 0.0266 µM | GI50 (COLO 205 colon) < 0.01 µM and 0.0347 µM | GI50 (U251 CNS) < 0.01 µM and 0.0404 µM | GI50 (ACHN renal) < 0.01 µM and 0.044 µM | GI50 (OVCAR-3 ovarian) < 0.01 µM and 0.0281 µM | GI50 (EKVX NSCLC) < 0.01 µM and 0.0673 µM

Cc1cc2c(F)c(Oc3ncnn4cc(OC[C@@H](C)OC(=O)[C@H](C)N)c(C)c34)ccc2[nH]1
27.6 µM: TGI (HCC-2998 colon)
21.5 µM: TGI (ACHN renal)
inactive: GI50 (MALME-3M melanoma) 11.7 µM | GI50 (SK-MEL-28 melanoma) 12.9 µM | GI50 (NCI-H460 lung) 2100 nM | GI50 (HCC-2998 colon) 13.5 µM | GI50 (MCF7 breast) 8.58 µM | GI50 (COLO 205 colon) 10.7 µM | GI50 (U251 CNS) 4.22 µM | GI50 (ACHN renal) 8.85 µM | GI50 (OVCAR-3 ovarian) 10.7 µM | GI50 (EKVX NSCLC) 13.5 µM
24.9 µM: TGI (MALME-3M melanoma)
18.5 µM: TGI (U251 CNS)
23.7 µM: TGI (OVCAR-3 ovarian)
24 µM: TGI (MCF7 breast)
25.1 µM: TGI (COLO 205 colon)
25.7 µM: TGI (SK-MEL-28 melanoma)
13.8 µM: TGI (NCI-H460 lung)
26.9 µM: TGI (EKVX NSCLC)

C=C(CN1CCc2ccccc2C1)c1ccc(C(=O)Nc2ccc(N)cc2)cc1
48 µM: TGI (OVCAR-3 ovarian)
61 µM: TGI (MALME-3M melanoma)
43 µM: TGI (HCC-2998 colon)
inactive: GI50 (MALME-3M melanoma) 18.3 µM | GI50 (SK-MEL-28 melanoma) 24.9 µM | GI50 (NCI-H460 lung) 27700 nM | GI50 (HCC-2998 colon) 14.6 µM | GI50 (MCF7 breast) 14.8 µM | GI50 (COLO 205 colon) 22.7 µM | GI50 (U251 CNS) 28.2 µM | GI50 (ACHN renal) 30 µM | GI50 (OVCAR-3 ovarian) 12.7 µM | GI50 (EKVX NSCLC) 22.4 µM
60.6 µM: TGI (COLO 205 colon)
72.5 µM: TGI (SK-MEL-28 melanoma)
> 100 µM: TGI (NCI-H460 lung) | TGI (MCF7 breast) | TGI (U251 CNS) | TGI (ACHN renal) | TGI (EKVX NSCLC)

O=C(Oc1ccc(CCl)cc1)c1ccccc1
0.307 µM: TGI (COLO 205 colon)
inactive: GI50 (EKVX NSCLC) 0.531 µM
0.246 µM: TGI (ACHN renal)
0.274 µM: TGI (MALME-3M melanoma)
1.79 µM: TGI (EKVX NSCLC)
0.385 µM: TGI (HCC-2998 colon)
0.525 µM: TGI (MCF7 breast)
active: GI50 (MALME-3M melanoma) 0.127 µM | GI50 (SK-MEL-28 melanoma) 0.159 µM | GI50 (NCI-H460 lung) 238 nM | GI50 (HCC-2998 colon) 0.189 µM | GI50 (MCF7 breast) 0.179 µM | GI50 (COLO 205 colon) 0.136 µM | GI50 (U251 CNS) 0.138 µM | GI50 (ACHN renal) 0.119 µM | GI50 (OVCAR-3 ovarian) 0.164 µM
1.09 µM: TGI (NCI-H460 lung)
0.304 µM: TGI (OVCAR-3 ovarian)
0.315 µM: TGI (SK-MEL-28 melanoma)
0.268 µM: TGI (U251 CNS)

Cc1ccc2c(=O)c3cccc(CC(=O)O)c3oc2c1C
inactive: GI50 (MALME-3M melanoma) > 100 µM | GI50 (SK-MEL-28 melanoma) > 100 µM | GI50 (NCI-H460 lung) > 100000 nM | GI50 (HCC-2998 colon) > 100 µM | GI50 (MCF7 breast) > 100 µM | GI50 (COLO 205 colon) > 100 µM | GI50 (U251 CNS) > 100 µM | GI50 (ACHN renal) > 100 µM | GI50 (OVCAR-3 ovarian) > 100 µM | GI50 (EKVX NSCLC) > 100 µM
> 100 µM: TGI (MALME-3M melanoma) | TGI (SK-MEL-28 melanoma) | TGI (NCI-H460 lung) | TGI (HCC-2998 colon) | TGI (MCF7 breast) | TGI (COLO 205 colon) | TGI (U251 CNS) | TGI (ACHN renal) | TGI (OVCAR-3 ovarian) | TGI (EKVX NSCLC)
